PubChem BioAssay (NCI)
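Tested at 5 concentrations; 48 h exposure; 96-well plates; endpoints linearly interpolated, else capped at highest concentration. At the TGI there is no net growth.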

What was measured:
Assay in all cases: DTP human tumour cell line panel, 48 h
DU-145 prostate = system: DU-145 prostate
EKVX NSCLC = system: EKVX NSCLC
HL-60(TB) leukemia = system: HL-60(TB) leukemia
HOP-92 NSCLC = system: HOP-92 NSCLC
K-562 leukemia = system: K-562 leukemia
MDA-N = system: MDA-N
NCI-H522 lung = system: NCI-H522 lung
OVCAR-4 ovarian = system: OVCAR-4 ovarian
OVCAR-8 ovarian = system: OVCAR-8 ovarian
T-47D breast = system: T-47D breast

Clc1ccc(C(OCn2ccnc2)c2nc3ccccc3[nH]2)c(Cl)c1 (stereo not given)
TGI (DU-145 prostate): > 100 µM
TGI (EKVX NSCLC): > 100 µM
TGI (HL-60(TB) leukemia): > 100 µM
TGI (HOP-92 NSCLC): 10.1 µM
TGI (K-562 leukemia): > 100 µM
TGI (MDA-N): > 100 µM
TGI (NCI-H522 lung): > 100 µM
TGI (OVCAR-4 ovarian): > 100 µM
TGI (OVCAR-8 ovarian): > 100 µM
TGI (T-47D breast): > 100 µM

Cc1nc2ccc(S(=O)(=O)O)cc2c(=O)n1-c1ccc(C(=O)NN2C(=O)C(Cl)C2c2cccs2)cc1 (stereo not given)
TGI (DU-145 prostate): > 100 µM
TGI (EKVX NSCLC): 35.3 µM
TGI (HL-60(TB) leukemia): 51.8 µM
TGI (HOP-92 NSCLC): > 100 µM
TGI (K-562 leukemia): > 100 µM
TGI (MDA-N): 80.2 µM
TGI (NCI-H522 lung): > 100 µM
TGI (OVCAR-4 ovarian): 79.7 µM
TGI (OVCAR-8 ovarian): > 100 µM
TGI (T-47D breast): > 100 µM

COC(=O)C(=O)C(C(=O)C(=O)Nc1cccc(OC)c1)c1nc2ccc(Cl)cc2[nH]c1=O (stereo not given)
TGI (DU-145 prostate): > 100 µM
TGI (EKVX NSCLC): > 100 µM
TGI (HL-60(TB) leukemia): > 100 µM
TGI (HOP-92 NSCLC): > 100 µM
TGI (K-562 leukemia): > 100 µM
TGI (MDA-N): > 100 µM
TGI (NCI-H522 lung): > 100 µM
TGI (OVCAR-4 ovarian): > 100 µM
TGI (OVCAR-8 ovarian): > 100 µM
TGI (T-47D breast): > 100 µM

CCCCCC(=O)OC[n+]1cccc(-c2c(COC(=O)NC(C)C)c(COC(=O)NC(C)C)c3n2CCC3)c1
TGI (DU-145 prostate): > 100 µM
TGI (EKVX NSCLC): > 100 µM
TGI (HL-60(TB) leukemia): > 100 µM
TGI (HOP-92 NSCLC): 77.2 µM
TGI (K-562 leukemia): > 100 µM
TGI (MDA-N): > 100 µM
TGI (NCI-H522 lung): 25.2 µM
TGI (OVCAR-4 ovarian): > 100 µM
TGI (OVCAR-8 ovarian): > 100 µM
TGI (T-47D breast): > 100 µM

O=C(OC1OC2COC(=O)c3cc(O)c(O)c(O)c3-c3c(cc(O)c(O)c3O)C(=O)OC3C2OC(=O)[C@@]24CC(=O)[C@@](O)(OC25C(=O)O[C@H]2[C@@H](O)CO[C@@]25O)C2(O)Oc5c(O)c(O)cc(c5C24)C(=O)OC13)c1cc(O)c(O)c(O)c1 (stereo not given in full)
TGI (DU-145 prostate): > 100 µM
TGI (EKVX NSCLC): > 100 µM
TGI (HL-60(TB) leukemia): 92.3 µM
TGI (HOP-92 NSCLC): > 100 µM
TGI (K-562 leukemia): > 100 µM
TGI (MDA-N): > 100 µM
TGI (NCI-H522 lung): 88 µM
TGI (OVCAR-4 ovarian): > 100 µM
TGI (OVCAR-8 ovarian): > 100 µM
TGI (T-47D breast): > 100 µM

CC(C)(C)n1c(=O)n2c(-c3ccccc3)c(-c3ccccc3)n2c1=O
TGI (DU-145 prostate): > 100 µM
TGI (EKVX NSCLC): > 100 µM
TGI (HL-60(TB) leukemia): > 100 µM
TGI (HOP-92 NSCLC): > 100 µM
TGI (K-562 leukemia): > 100 µM
TGI (MDA-N): > 100 µM
TGI (NCI-H522 lung): 56.5 µM
TGI (OVCAR-4 ovarian): > 100 µM
TGI (OVCAR-8 ovarian): > 100 µM
TGI (T-47D breast): > 100 µM

C=CCN(c1cc(O)c2c(c(C)cn2S(=O)(=O)c2ccccc2)c1[N+](=O)[O-])S(C)(=O)=O
TGI (DU-145 prostate): > 100 µM
TGI (EKVX NSCLC): > 100 µM
TGI (HL-60(TB) leukemia): > 100 µM
TGI (HOP-92 NSCLC): > 100 µM
TGI (K-562 leukemia): > 100 µM
TGI (MDA-N): > 100 µM
TGI (NCI-H522 lung): > 100 µM
TGI (OVCAR-4 ovarian): > 100 µM
TGI (OVCAR-8 ovarian): > 100 µM
TGI (T-47D breast): > 100 µM

Cc1ccc2c(=O)cc(-c3cc(C)sc3C)[nH]c2n1
TGI (DU-145 prostate): > 94.5 µM
TGI (EKVX NSCLC): > 100 µM
TGI (HL-60(TB) leukemia): 6.74 µM
TGI (HOP-92 NSCLC): > 100 µM
TGI (K-562 leukemia): > 100 µM
TGI (MDA-N): 1.92 µM
TGI (NCI-H522 lung): > 22.2 µM
TGI (OVCAR-4 ovarian): > 100 µM
TGI (OVCAR-8 ovarian): > 37.3 µM
TGI (T-47D breast): > 100 µM

Cc1nc2ccc(N=Nc3c(C)noc3C)cc2[nH]1
TGI (DU-145 prostate): > 100 µM
TGI (EKVX NSCLC): > 100 µM
TGI (HL-60(TB) leukemia): 61.6 µM
TGI (HOP-92 NSCLC): 60.2 µM
TGI (K-562 leukemia): > 100 µM
TGI (MDA-N): > 100 µM
TGI (NCI-H522 lung): > 100 µM
TGI (OVCAR-4 ovarian): > 100 µM
TGI (OVCAR-8 ovarian): 89.6 µM
TGI (T-47D breast): 15.2 µM

Nc1ccc2c(=S)c3ccccc3[nH]c2c1
TGI (DU-145 prostate): > 100 µM
TGI (EKVX NSCLC): > 100 µM
TGI (HL-60(TB) leukemia): > 100 µM
TGI (HOP-92 NSCLC): 98.9 µM
TGI (K-562 leukemia): > 100 µM
TGI (MDA-N): > 100 µM
TGI (NCI-H522 lung): 79.2 µM
TGI (OVCAR-4 ovarian): > 100 µM
TGI (OVCAR-8 ovarian): > 100 µM
TGI (T-47D breast): > 59 µM

CC(=O)Oc1ccc(-c2nnc(-c3ccc(OC(C)=O)cc3)nn2)cc1
TGI (DU-145 prostate): > 100 µM
TGI (EKVX NSCLC): > 100 µM
TGI (HL-60(TB) leukemia): 84 µM
TGI (HOP-92 NSCLC): > 100 µM
TGI (K-562 leukemia): > 100 µM
TGI (MDA-N): > 100 µM
TGI (NCI-H522 lung): > 100 µM
TGI (OVCAR-4 ovarian): > 100 µM
TGI (OVCAR-8 ovarian): > 100 µM
TGI (T-47D breast): > 100 µM

CC(C)=CCC[C@@H](C)C1=C(N)C(O)=C(C)C(=O)C1=O
TGI (DU-145 prostate): > 75 µM
TGI (EKVX NSCLC): > 75 µM
TGI (HL-60(TB) leukemia): 39.5 µM
TGI (HOP-92 NSCLC): > 75 µM
TGI (K-562 leukemia): > 75 µM
TGI (MDA-N): > 75 µM
TGI (NCI-H522 lung): 50.9 µM
TGI (OVCAR-4 ovarian): > 75 µM
TGI (OVCAR-8 ovarian): > 61.2 µM
TGI (T-47D breast): > 75 µM

COc1cc(CCN)c(OC)c(OC)c1
TGI (DU-145 prostate): > 100 µM
TGI (EKVX NSCLC): > 100 µM
TGI (HL-60(TB) leukemia): > 100 µM
TGI (HOP-92 NSCLC): > 100 µM
TGI (K-562 leukemia): > 100 µM
TGI (MDA-N): > 100 µM
TGI (NCI-H522 lung): > 100 µM
TGI (OVCAR-4 ovarian): > 100 µM
TGI (OVCAR-8 ovarian): > 100 µM
TGI (T-47D breast): > 100 µM

Cc1cccc(C)c1NC(=O)C(=O)CC(=O)c1sc(Nc2c(C)cccc2C)nc1C
TGI (DU-145 prostate): > 100 µM
TGI (EKVX NSCLC): > 100 µM
TGI (HL-60(TB) leukemia): > 100 µM
TGI (HOP-92 NSCLC): > 100 µM
TGI (K-562 leukemia): > 100 µM
TGI (MDA-N): > 100 µM
TGI (NCI-H522 lung): > 100 µM
TGI (OVCAR-4 ovarian): > 100 µM
TGI (OVCAR-8 ovarian): > 100 µM
TGI (T-47D breast): > 100 µM

NC(CCC(=O)O)C(=O)NC(Cc1ccc(N(CCCl)CCCl)cc1)C(=O)O (stereo not given)
TGI (DU-145 prostate): > 100 µM
TGI (EKVX NSCLC): > 100 µM
TGI (HL-60(TB) leukemia): > 100 µM
TGI (HOP-92 NSCLC): > 100 µM
TGI (K-562 leukemia): > 100 µM
TGI (MDA-N): > 100 µM
TGI (NCI-H522 lung): > 100 µM
TGI (OVCAR-4 ovarian): > 100 µM
TGI (OVCAR-8 ovarian): > 100 µM
TGI (T-47D breast): > 100 µM

COC(=O)c1ccc(CCC2=CC(=O)C=CC2=O)cc1
TGI (DU-145 prostate): 33.8 µM
TGI (EKVX NSCLC): 38.7 µM
TGI (HL-60(TB) leukemia): 4.79 µM
TGI (HOP-92 NSCLC): 25.1 µM
TGI (K-562 leukemia): 8.9 µM
TGI (MDA-N): 27.6 µM
TGI (NCI-H522 lung): 3.14 µM
TGI (OVCAR-4 ovarian): 38.4 µM
TGI (OVCAR-8 ovarian): 50.7 µM
TGI (T-47D breast): 8.79 µM
